Results taken from US7855297B2, “Amide derivatives and medicinal use thereof” (Mitsubishi Tanabe Pharma Corporation, priority 2000, dated 2010).

What was measured:
[1] = test system: C5a-stimulated neutrophil; assay: Migrating ability of C5a-stimulated neutrophil; type: cell-based; conditions: 1.5 h, human neutrophils, C5a 100 pmol/L, 90 min, read-out: IC50 value, concentration at which migration of C5a-stimulated neutrophil is inhibited by 50%
Procedure: A neutrophil fraction was separately taken from human peripheral venous blood using Lympholyte-poly (Cedarlane) and suspended in RPMI 1640 medium (GIBCO BRL) supplemented with 0.1% bovine serum albumin (BSA). To. this neutrophil fraction (5×10^6 cells/mL) was added Calcein-AM (final concentration 5 μM, FUNAKOSHI), and the mixture was incubated at 37° C. for 30 min. The cells were washed by centrifugation and suspended to a concentration of 1×10^6 cells/mL. The migration was evaluated by adding neutrophils to chemotaxicell (pore size: 3 μm, KURABO) and measuring the neutrophils that migrated outside the chemotaxicell. First, 100 pmol/L of C5a solution was added to 24 well plate (500 μL/well) and chemotaxicell was set in the well. […] The fluorescent intensity of each well was measured by Cyto Fluor II (Ex: 485, Em: 530). The rate (% inhibition) of the inhibition of migration of C5a-stimulated neutrophil by the test compound was calculated by the following formula, wherein the fluorescence intensity of neutrophil that migrated by C5a stimulation without addition of the test compound is Max, the fluorescent intensity of neutrophil that migrated without addition of test compound and without C5a stimulation is Min, and the fluorescent intensity of neutrophil that migrated by C5a stimulation with the addition of the test compound is Test. % Inhibition=100−[(Test-Min)/(Max-Min)]×100 […]

[2] = test system: C5a stimulated neutrophil; assay: Production of reactive oxygen species in C5a stimulated neutrophil; type: cell-based; conditions: human neutrophils, C5a 3 nmol/L, luminol luminescence; read-out: IC50 value, concentration at which production of reactive oxygen species in C5a stimulated neutrophil is inhibited by 50%
Procedure: A neutrophil fraction was separately taken from human peripheral venous blood using Lympholyte-poly (Cedarlane), and suspended in Hank's Balanced Salt Solution (HBSS, GIBCO BRL) containing 1% fetal bovine serum (FBS) and 1 mmol/L of luminol (Wako Pure Chemical Industries, Ltd.). Reactive oxygen species was measured using a luminometer (MicroLumat, Berthold) for 96 well plate. […] Then, 25 μL of C5a (final concentration 3 nmol/L) was added and luminescence produced by the reaction of the luminol and the reactive oxygen species was measured with the lapse of time for 15 min. The rate (% inhibition) of inhibition of the production of reactive oxygen species in C5a stimulated neutrophil by the test compound was calculated by the following formula, wherein the peak value of the production of reactive oxygen species derived by C5a without addition of the test compound is Max, the peak value of the production of reactive oxygen species without addition of the test compound and without C5a stimulation is Min, and the peak value of the production of reactive oxygen species derived by C5a with the addition of the test compound is Test. % Inhibition=100−[(Test-Min)/(Max-Min)]×100 […]

IC50 [1]: 100 nM | IC50 [2]: 10 nM
SMILES: CC(C)c1ccc(N(Cc2ccc(N(C)C)cc2)C(=O)C2CCCc3ccccc32)cc1 (centres unmarked) [Example 4, N-[(4-dimethylaminophenyl)methyl]-N-(4-isopropylphenyl)-1,2,3,4-tetrahydronaphthalene-1-carboxamide]
